Test results taken from US20100004704A1, “METHOD FOR TREATING A CARDIAC RHYTHM DISTURBANCE” (The Cleveland Clinic Foundation, priority 2008, published 2010).

Tested on: open-chest canines
Assay: Dobutamine infusion followed by vagal (sinus node fat pad) stimulation, hemodynamics in open-chest canines
Type: in vivo
Experimental: A study was done to assess the effects of dobutamine administration followed by vagal stimulation on sinus tachycardia. The study was done using 4 open-chest canines. Dobutamine was infused at a rate of 2.5-7.5 μg/kg/min to increase the cardiac contractility and the sinus rate at least 30 beats per minute. Vagal nerve stimulation was applied at the epicardial sinus node fat pad, located at the junction of the right pulmonary vein and the right atrium. Vagal stimulation was done with an electrical lead comprising a silicone plate with four platinum electrodes imbedded therein. Rectangular current pulses were delivered with intensity in the range of 1 to 5 mA, duration of pulse in the range of 0.1 ms to 1 ms, and frequency of repetition of the pulses between 20-30 Hz. To avoid tissue polarization, the polarity of consecutive pulses was alternated. Vagal nerve stimulation was administered to slow the sinus rate to the control level. Hemodynamic data was collected and compared in canines during control, during administration of dobutamine, and during both dobutamine and vagal stimulation.

[1] = dobutamine + vagal stimulation at sinus node fat pad
[2] = dobutamine infused 2.5-7.5 μg/kg/min, no vagal stimulation

CC(CCc1ccc(O)cc1)NCCc1ccc(O)c(O)c1 (stereo not drawn) [Dobutamine, dobutamine]
RR interval (dobutamine 2.5-7.5 μg/kg/min + vagal stimulation at sinus node fat pad (1-5 mA, 0.1-1 ms, 20-30 Hz)): 560 ± 16 ms
+dp/dt [1]: 2980 ± 602 mmHg/s
CO [1]: 3.6 ± 0.8 L/min
DBP [1]: 74 ± 7 mmHg
LVEDP [1]: 7.6 ± 1.5 mmHg
LVSP [1]: 120 ± 16 mmHg
SBP [1]: 126 ± 12 mmHg
−dp/dt [1]: −1897 ± −313 mmHg/s
heart rate, systolic blood pressure (SBP), diastolic blood pressure (DBP), left ventricular systolic pressure (LVSP) (and its ±dp/dt), and cardiac output (CO) (dobutamine administration vs. control, open-chest canines): significantly increased
RR interval (dobutamine infused 2.5-7.5 μg/kg/min, 4 open-chest canines, no vagal stimulation): 421 ± 36 ms
+dp/dt [2]: 3607 ± 861 mmHg/s
CO [2]: 4.2 ± 0.9 L/min
DBP [2]: 84 ± 7 mmHg
LVEDP [2]: 6.9 ± 2.2 mmHg
LVSP [2]: 130 ± 13 mmHg
SBP [2]: 135 ± 18 mmHg
−dp/dt [2]: −2259 ± −495 mmHg/s
sinus rate increase (vagal stimulation combined with dobutamine, all other hemodynamic benefits preserved): eliminated sinus rate increase
